Legend:
[1] = Displacement of [3H]-dio-tolylguanidine from Sigma 2 receptor in Dunkin-Hartley guinea pig brain membrane incubated for 120 mins in presence of sigma1 blocker (+)-SKF-10047 by liquid scintillation counting method; assay type: cell membranes, Cavia porcellus
[2] = species: Cavia porcellus; experiment: Selectivity ratio of Ki for sigma 2 receptor in Dunkin-Hartley guinea pig brain membranes to Ki for sigma 1 receptor in Dunkin-Hartley guinea pig brain membrane
[3] = biological target: Histamine H3 receptor (Rattus norvegicus, UniProt Q9QYN8); experiment: Displacement of [3H]-methylhistamine from Histamine H3 receptor in rat cerebral cortex incubated for 30 min by liquid scintillation counting method; assay type: tissue-based
[4] = biological target: T1, Sigma non-opioid intracellular receptor 1 (Cavia porcellus, UniProt Q60492); experiment: Displacement of [3H]-(+)-pentazocine from sigma 1 receptor in Dunkin-Hartley guinea pig brain membranes incubated for 180 mins by liquid scintillation counting method; assay type: cell membranes, Membrane
T1 sequence (Q60492 whole entry): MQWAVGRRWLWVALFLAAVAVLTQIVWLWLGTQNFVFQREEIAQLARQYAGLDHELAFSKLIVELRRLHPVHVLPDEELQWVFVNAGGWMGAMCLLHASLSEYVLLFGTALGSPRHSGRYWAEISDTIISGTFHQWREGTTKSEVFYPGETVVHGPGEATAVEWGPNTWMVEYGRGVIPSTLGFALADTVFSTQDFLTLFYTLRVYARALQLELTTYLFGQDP

[5] = biological target: Sigma intracellular receptor 2 (Homo sapiens, UniProt Q5BJF2); experiment: Binding affinity to sigma-2 receptor (unknown origin)
Sigma intracellular receptor 2 (Homo sapiens, UniProt Q5BJF2), sequence (Q5BJF2 whole entry): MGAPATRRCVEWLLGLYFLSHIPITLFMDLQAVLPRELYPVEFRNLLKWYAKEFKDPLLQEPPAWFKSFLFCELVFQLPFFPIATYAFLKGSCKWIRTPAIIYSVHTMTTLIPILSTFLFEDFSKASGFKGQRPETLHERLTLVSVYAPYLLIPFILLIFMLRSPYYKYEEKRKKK

[6] = biological target: T2, Sigma non-opioid intracellular receptor 1 (Homo sapiens, UniProt Q99720); experiment: Binding affinity to sigma-1 receptor (unknown origin)
T2 sequence (Q99720 whole entry): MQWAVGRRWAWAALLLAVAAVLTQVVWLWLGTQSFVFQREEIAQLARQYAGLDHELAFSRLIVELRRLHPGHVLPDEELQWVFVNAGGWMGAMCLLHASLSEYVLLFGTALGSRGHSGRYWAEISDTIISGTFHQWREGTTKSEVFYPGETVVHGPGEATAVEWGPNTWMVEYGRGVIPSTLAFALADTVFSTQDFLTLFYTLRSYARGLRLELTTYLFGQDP

[7] = biological target: Alpha-2A adrenergic receptor (Homo sapiens, UniProt P08913); experiment: Binding affinity to alpha 2A adrenoceptor (unknown origin)
[8] = biological target: T3, Sigma intracellular receptor 2 (Rattus norvegicus, UniProt Q5U3Y7); assay type: cell membranes, Sprague-Dawley, Brain, Membrane
T3 sequence (Q5U3Y7 whole entry): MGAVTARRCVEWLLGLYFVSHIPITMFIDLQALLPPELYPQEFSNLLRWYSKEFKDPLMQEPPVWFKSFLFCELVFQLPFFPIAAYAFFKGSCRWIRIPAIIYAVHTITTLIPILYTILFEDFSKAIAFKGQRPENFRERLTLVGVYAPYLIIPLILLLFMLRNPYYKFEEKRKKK

[9] = biological target: Sigma intracellular receptor 2 (Mus musculus, UniProt Q8VD00); experiment: Inhibition of radioligand binding to sigma2 receptor in C57BL/6 mouse brain membranes; assay type: cell membranes, Membrane
Sigma intracellular receptor 2 (Mus musculus, UniProt Q8VD00), sequence (Q8VD00 whole entry): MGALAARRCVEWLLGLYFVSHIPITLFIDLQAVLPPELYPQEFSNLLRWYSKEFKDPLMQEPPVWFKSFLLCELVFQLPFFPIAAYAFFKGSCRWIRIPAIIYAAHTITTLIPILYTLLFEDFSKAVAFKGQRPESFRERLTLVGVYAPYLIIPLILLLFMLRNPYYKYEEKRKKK

[10] = biological target: Sigma non-opioid intracellular receptor 1 (Mus musculus, UniProt O55242); experiment: Inhibition of radioligand binding to sigma1 receptor in C57BL/6 mouse brain membranes; assay type: cell membranes, Membrane
[11] = Selectivity ratio of Ki for displacement of [3H]DTG from sigma2 receptor in rat liver membranes to Ki for displacement of [3H]-(+)-pentazocine from sigma1 receptor in guinea pig brain cortex membranes; assay type: cell membranes
[12] = biological target: T3, Sigma intracellular receptor 2; experiment: Displacement of [3H]DTG from sigma2 receptor in rat liver membranes incubated for 120 mins by solid scintillation counting method; assay type: cell membranes, Membrane
[13] = biological target: T1, Sigma non-opioid intracellular receptor 1; experiment: Displacement of [3H]-(+)-pentazocine from sigma1 receptor in guinea pig brain cortex membranes incubated for 120 mins by solid scintillation counting method; assay type: cell membranes, Membrane
[14] = Selectivity ratio of Ki for displacement of [3H]DTG from sigma2 receptor in rat PC12 cells to Ki for displacement of [3H]-(+)-pentazocine from sigma1 receptor in guinea pig brain homogenate; assay type: cell-based
[15] = biological target: Sodium-dependent serotonin transporter (Homo sapiens, UniProt P31645); experiment: Displacement of [3H]citalopram from serotonin transporter (unknown origin) by liquid scintillation counting method
Sodium-dependent serotonin transporter, sequence (P31645 whole entry): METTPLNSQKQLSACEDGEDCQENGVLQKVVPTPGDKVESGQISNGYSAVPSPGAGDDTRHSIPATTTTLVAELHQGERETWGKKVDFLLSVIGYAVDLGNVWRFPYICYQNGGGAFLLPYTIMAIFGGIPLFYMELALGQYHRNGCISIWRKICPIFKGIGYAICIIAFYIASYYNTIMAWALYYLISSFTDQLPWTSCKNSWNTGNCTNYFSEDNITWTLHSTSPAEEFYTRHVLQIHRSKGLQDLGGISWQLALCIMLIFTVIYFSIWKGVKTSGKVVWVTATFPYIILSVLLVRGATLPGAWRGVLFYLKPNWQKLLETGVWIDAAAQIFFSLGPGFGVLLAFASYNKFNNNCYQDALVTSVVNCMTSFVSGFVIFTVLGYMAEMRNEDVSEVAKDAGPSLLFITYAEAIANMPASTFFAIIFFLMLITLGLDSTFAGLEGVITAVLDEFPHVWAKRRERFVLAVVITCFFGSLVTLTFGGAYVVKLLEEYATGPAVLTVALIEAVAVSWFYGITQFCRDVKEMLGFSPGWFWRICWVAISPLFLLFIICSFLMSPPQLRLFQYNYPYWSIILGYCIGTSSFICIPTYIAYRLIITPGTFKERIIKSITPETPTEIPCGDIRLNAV

[16] = biological target: T4, Sodium-dependent noradrenaline transporter (Homo sapiens, UniProt P23975); experiment: Displacement of [3H]nisoxetine from norepinephrine transporter (unknown origin) by liquid scintillation counting method
T4 sequence (P23975 whole entry): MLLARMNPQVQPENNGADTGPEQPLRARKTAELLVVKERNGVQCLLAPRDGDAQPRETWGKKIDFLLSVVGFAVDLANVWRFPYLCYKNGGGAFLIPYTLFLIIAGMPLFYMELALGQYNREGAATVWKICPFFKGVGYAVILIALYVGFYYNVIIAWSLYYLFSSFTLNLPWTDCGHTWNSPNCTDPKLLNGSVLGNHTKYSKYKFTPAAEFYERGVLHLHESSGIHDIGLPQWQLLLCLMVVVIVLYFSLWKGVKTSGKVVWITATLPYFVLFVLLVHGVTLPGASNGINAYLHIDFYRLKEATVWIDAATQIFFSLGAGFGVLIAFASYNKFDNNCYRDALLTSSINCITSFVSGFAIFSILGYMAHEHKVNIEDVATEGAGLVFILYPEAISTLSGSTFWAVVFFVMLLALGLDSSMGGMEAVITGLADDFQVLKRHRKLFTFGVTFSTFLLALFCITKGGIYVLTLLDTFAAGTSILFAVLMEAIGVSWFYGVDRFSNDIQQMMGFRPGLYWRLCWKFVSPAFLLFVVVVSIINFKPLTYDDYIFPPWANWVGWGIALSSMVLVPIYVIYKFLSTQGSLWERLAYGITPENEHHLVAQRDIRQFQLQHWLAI

[17] = biological target: T5, Sodium-dependent dopamine transporter (Homo sapiens, UniProt Q01959); experiment: Displacement of [3H]WIN35428 from dopamine transporter (unknown origin) by liquid scintillation counting method
T5 sequence (Q01959 whole entry): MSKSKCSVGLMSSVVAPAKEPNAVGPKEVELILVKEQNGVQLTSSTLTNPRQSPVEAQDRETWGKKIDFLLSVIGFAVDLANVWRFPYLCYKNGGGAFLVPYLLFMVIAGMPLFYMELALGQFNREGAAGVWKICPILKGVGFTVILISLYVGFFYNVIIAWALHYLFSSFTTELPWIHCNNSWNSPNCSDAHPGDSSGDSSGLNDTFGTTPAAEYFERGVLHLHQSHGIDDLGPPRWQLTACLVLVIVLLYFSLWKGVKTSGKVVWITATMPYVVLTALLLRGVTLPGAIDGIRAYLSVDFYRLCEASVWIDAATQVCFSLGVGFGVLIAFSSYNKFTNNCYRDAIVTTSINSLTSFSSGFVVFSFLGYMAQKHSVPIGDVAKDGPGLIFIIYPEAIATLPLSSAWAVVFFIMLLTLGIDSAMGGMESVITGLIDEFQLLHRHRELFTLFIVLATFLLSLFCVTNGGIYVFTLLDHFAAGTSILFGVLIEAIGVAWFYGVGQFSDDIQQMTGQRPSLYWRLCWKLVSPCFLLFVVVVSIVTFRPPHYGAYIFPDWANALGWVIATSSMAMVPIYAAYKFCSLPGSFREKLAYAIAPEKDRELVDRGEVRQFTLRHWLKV

[18] = biological target: Histamine H2 receptor (Homo sapiens) (UniProt P25021); experiment: Inhibition of radioligand binding to histamine H2 receptor (unknown origin) at 1 uM relative to control
[19] = biological target: T4, Sodium-dependent noradrenaline transporter; experiment: Inhibition of radioligand binding to noradrenaline transporter (unknown origin) at 1 uM relative to control
[20] = biological target: D(4) dopamine receptor (Homo sapiens) (UniProt P21917); experiment: Inhibition of radioligand binding to dopamine D4 receptor (unknown origin) at 1 uM relative to control
[21] = biological target: T5, Sodium-dependent dopamine transporter; experiment: Inhibition of radioligand binding to dopamine transporter (unknown origin) at 1 uM relative to control
[22] = biological target: Muscarinic acetylcholine receptor M3 (Homo sapiens, UniProt P20309); experiment: Binding affinity to muscarinic acetylcholine receptor M3 (unknown origin)
Muscarinic acetylcholine receptor M3, sequence (P20309 whole entry): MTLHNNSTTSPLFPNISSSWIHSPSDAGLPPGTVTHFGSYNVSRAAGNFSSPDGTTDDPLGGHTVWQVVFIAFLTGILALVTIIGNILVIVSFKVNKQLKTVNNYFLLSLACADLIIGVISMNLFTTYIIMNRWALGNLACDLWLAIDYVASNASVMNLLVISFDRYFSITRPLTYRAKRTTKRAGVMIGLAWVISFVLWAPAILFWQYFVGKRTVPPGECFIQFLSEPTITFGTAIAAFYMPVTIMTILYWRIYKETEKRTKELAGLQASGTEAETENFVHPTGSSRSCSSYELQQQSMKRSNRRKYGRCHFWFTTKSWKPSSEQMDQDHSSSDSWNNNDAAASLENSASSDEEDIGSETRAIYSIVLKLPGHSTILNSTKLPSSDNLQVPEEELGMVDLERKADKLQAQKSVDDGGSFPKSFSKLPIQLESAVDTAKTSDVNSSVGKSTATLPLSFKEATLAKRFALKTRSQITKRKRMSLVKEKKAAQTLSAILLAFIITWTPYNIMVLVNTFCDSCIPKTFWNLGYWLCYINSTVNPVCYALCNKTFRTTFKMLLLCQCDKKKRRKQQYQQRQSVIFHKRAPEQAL

[23] = biological target: Muscarinic acetylcholine receptor M4 (Homo sapiens, UniProt P08173); experiment: Binding affinity to muscarinic acetylcholine receptor M4 (unknown origin)
Muscarinic acetylcholine receptor M4, sequence (P08173 whole entry): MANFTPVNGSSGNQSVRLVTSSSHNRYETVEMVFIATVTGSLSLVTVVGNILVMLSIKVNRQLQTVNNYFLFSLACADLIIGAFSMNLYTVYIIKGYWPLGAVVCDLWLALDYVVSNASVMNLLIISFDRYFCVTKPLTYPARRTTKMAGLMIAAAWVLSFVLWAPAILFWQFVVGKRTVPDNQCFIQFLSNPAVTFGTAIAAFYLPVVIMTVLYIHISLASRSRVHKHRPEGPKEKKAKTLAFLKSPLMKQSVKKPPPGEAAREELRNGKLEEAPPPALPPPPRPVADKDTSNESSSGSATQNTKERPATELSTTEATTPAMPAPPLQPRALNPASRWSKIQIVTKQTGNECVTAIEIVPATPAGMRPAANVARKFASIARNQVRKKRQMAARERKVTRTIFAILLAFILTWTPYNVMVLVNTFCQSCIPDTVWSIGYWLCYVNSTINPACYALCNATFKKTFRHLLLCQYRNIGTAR

[24] = biological target: Muscarinic acetylcholine receptor M1 (Homo sapiens, UniProt P11229); experiment: Binding affinity to muscarinic acetylcholine receptor M1 (unknown origin)
Muscarinic acetylcholine receptor M1, sequence (P11229 whole entry): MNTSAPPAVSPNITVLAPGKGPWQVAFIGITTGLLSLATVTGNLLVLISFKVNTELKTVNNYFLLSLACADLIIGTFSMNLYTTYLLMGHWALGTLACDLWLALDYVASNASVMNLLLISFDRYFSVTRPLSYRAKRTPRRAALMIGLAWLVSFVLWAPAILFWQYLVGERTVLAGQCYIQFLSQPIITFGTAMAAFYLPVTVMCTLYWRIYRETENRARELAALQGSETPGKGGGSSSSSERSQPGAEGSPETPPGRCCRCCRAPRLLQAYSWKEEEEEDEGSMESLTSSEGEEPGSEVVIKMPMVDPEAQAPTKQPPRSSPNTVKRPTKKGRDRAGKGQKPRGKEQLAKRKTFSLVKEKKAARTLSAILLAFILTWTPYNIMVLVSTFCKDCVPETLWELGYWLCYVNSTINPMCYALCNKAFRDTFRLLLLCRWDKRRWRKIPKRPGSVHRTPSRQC

[25] = biological target: Muscarinic acetylcholine receptor M2 (Homo sapiens, UniProt P08172); experiment: Binding affinity to muscarinic acetylcholine receptor M2 (unknown origin)
[26] = Selectivity ratio of Ki for sigma2 receptor in Wistar Hannover rat liver membranes to Ki for sigma 1 receptor in Dunkin guinea pig brain membranes; assay type: cell membranes
[27] = biological target: T3, Sigma intracellular receptor 2; experiment: Displacement of [3H]DTG from sigma2 receptor in Wistar Hannover rat liver membranes incubated for 120 mins by solid scintillation counting method; assay type: cell membranes, Membrane
[28] = biological target: T1, Sigma non-opioid intracellular receptor 1; experiment: Displacement of [3H]-(+)-pentazocine from sigma 1 receptor in Dunkin guinea pig brain membranes incubated for 120 mins by scintillation counting method; assay type: cell membranes, Membrane
[29] = biological target: T6, Sigma non-opioid intracellular receptor 1 (Rattus norvegicus, UniProt Q9R0C9); assay type: cell membranes, Sprague-Dawley, Brain, Membrane
T6 sequence (Q9R0C9 whole entry): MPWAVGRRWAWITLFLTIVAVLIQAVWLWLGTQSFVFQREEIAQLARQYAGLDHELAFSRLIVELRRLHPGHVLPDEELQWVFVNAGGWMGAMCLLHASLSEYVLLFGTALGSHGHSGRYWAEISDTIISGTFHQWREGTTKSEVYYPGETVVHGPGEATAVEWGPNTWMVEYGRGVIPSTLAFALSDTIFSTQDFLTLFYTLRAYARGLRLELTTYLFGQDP

[30] = Displacement of [3H]DTG from sigma2 receptor in guinea pig brain membranes by scintillation counting method; assay type: cell membranes, Cavia porcellus, Membrane
[31] = biological target: T6, Sigma non-opioid intracellular receptor 1; experiment: Displacement of [3H]-(+)-pentazocine from sigma 1 receptor in rat liver membranes incubated for 60 mins […] by radioactivity method; assay type: cell membranes, Membrane
[32] = biological target: T3, Sigma intracellular receptor 2; experiment: Displacement of [3H]DTG from sigma 2 receptor in rat liver membranes incubated for 60 mins in presence of [3H]-(+)-pentazocine by radioactivity method; assay type: cell membranes, Membrane
[33] = biological target: T2, Sigma non-opioid intracellular receptor 1
[34] = biological target: Kappa-type opioid receptor (Homo sapiens, UniProt P41145); experiment: Binding affinity to kappa opioid receptor (unknown origin)
Kappa-type opioid receptor, sequence (P41145 whole entry): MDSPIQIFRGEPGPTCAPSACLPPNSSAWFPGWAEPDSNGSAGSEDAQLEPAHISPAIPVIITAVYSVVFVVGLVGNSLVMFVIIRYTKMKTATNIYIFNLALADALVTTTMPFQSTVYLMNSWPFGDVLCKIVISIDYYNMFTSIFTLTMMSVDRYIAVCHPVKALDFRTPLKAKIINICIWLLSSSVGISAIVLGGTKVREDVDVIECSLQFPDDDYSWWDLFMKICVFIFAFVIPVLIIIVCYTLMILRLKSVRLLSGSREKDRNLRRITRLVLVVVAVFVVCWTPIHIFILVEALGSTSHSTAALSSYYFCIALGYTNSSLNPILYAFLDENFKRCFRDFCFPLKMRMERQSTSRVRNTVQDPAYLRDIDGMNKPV

[35] = biological target: T1, Sigma non-opioid intracellular receptor 1; experiment: Displacement of [3H]-(+)-pentazocine from sigma 1 receptor in guinea pig brain cortex membranes incubated for 120 mins by solid scintillation counting method; assay type: cell membranes, Membrane

In the case of `Clc1ccc(-c2noc(CCCCN3CCOCC3)n2)c(Cl)c1`, the Ki [1] is reported as 164 nM, the Ratio Ki [2] is reported as 587 and the Ki [3] is reported as 23.2 nM. For the same compound, the Ki [4] was 0.28 nM.
Compound `C=C1CCN2Cc3ccc(OC)cc3[C@H]3CCCC[C@]32C1` has a Ki [5] of 152 nM, a Ki [6] of 8 nM and a Ki [7] of 531 nM.
Work on `CCN(CC)CCOCCOC(=O)C1(c2ccccc2)CCCC1` [CARBETAPENTANE] yielded a Ki [5] of 1950 nM and a Ki [6] of 129 nM.
`CNCCC(Oc1ccc(C(F)(F)F)cc1)c1ccccc1` (configuration not stated) [FLUOXETINE] gave a Ki [8] of 16100 nM.
`C#CCN(C)CCCOc1ccc(Cl)cc1Cl` [CLORGILINE] showed a Ki [9] of 505 nM and a Ki [10] of 2.9 nM.
In the case of `CCOC1(c2ncc(-c3cccnc3)s2)CCN(Cc2ccccc2)CC1`, the Ratio Ki [11] is reported as greater than 1500, the Ki [12] is reported as 2130 nM and the Ki [13] is reported as 1.3 nM.
For `c1ccc(OCc2cc(OCCNC3CCC3)no2)cc1`, the Ratio Ki [14] was 990, the Ki [15] was greater than 7000 nM and the Ki [16] was greater than 7000 nM. The Ki [17] was greater than 7000 nM.
In the case of `Fc1ccc(CN2CCC(Cc3ccccc3)c3ccccc3C2)cc1` (configuration not stated), the inhibition [18] is reported as 59%, the Ratio Ki [11] is reported as greater than 52 and the Ki [12] is reported as 889 nM. It also gave an inhibition [19] of 71%, a Ki [13] of 7.1 nM and an inhibition [20] of 91%. For the same compound, the inhibition [21] was 85%.
For `CCOC1(c2ncc(-c3ccncc3)s2)CCN(Cc2ccccc2)CC1`, the Ratio Ki [11] was greater than 1500, the Ki [12] was 3600 nM and the Ki [13] was 1.9 nM.
Compound `CN(C)CC1CCOC1(c1ccccc1)c1ccccc1` (configuration not stated) [BLARCAMESINE] has an IC50 [22] of 3300 nM, an IC50 [6] of 860 nM and an IC50 [23] of 3300 nM. It also gave an IC50 [24] of 3300 nM and an IC50 [25] of 3300 nM.
Compound `COc1ccc2c(CCCCN3C4CCCC3CCC4)cccc2c1` has a Ratio Ki [26] of 317, a Ki [27] of 226 nM and a Ki [28] of 1.03 nM.
Compound `c1ccc(CO[C@H](c2ccccc2)[C@H]2CCN(Cc3ccccc3)Cc3ccccc32)cc1` has a Ratio Ki [11] greater than 52, a Ki [12] of 668 nM and a Ki [13] of 9 nM.
`CN(C)CCCN1c2ccccc2CCc2ccccc21` [IMIPRAMINE] gave a Ki [8] of 2110 nM and a Ki [29] of 343 nM.
`COc1ccc(CCN2CCN(CCCc3ccccc3)CC2)cc1OC` [[11C]SA4503] showed an IC50 [30] of 1800 nM.
`c1ccc(CN2CCC3(CCc4ccccc4S3)CC2)cc1` showed a Ki [31] of 0.5 nM and a Ki [32] of 416 nM.
With `CCCN1CCC(c2cccc(S(C)(=O)=O)c2)CC1` [PRIDOPIDINE] the Ki [33] was 81.7 nM.
For `CC(C)=CCN1CCC2(C)c3cc(O)ccc3CC1C2C` (configuration not stated) [PENTAZOCINE], the Ki [34] was 2.2 nM.
Work on `O=C(COc1ccc(Cl)c(Cl)c1)NCCN1CCOCC1` yielded a Ki [12] of 1500 nM and a Ki [35] of 42 nM.
`c1ccc(CC2CCN(CC3CCCCC3)Cc3ccccc32)cc1` (configuration not stated) showed a Ratio Ki [11] greater than 52, a Ki [12] of 125 nM and a Ki [13] of 2.4 nM.

From ChEMBL document CHEMBL4715859, “Small Molecules Selectively Targeting Sigma-1 Receptor for the Treatment of Neurological Diseases” (J Med Chem, 2020)
